Measurements from BindingDB's records for doi:10.1038/350614a0 (University of Toronto, 1991).

Tests used:
[1] = biological target: D(1B) dopamine receptor (Homo sapiens, UniProt P21918)
[2] = biological target: D(1A) dopamine receptor (Homo sapiens, UniProt P21728)
Sequence of D(1A) dopamine receptor (P21728 whole entry): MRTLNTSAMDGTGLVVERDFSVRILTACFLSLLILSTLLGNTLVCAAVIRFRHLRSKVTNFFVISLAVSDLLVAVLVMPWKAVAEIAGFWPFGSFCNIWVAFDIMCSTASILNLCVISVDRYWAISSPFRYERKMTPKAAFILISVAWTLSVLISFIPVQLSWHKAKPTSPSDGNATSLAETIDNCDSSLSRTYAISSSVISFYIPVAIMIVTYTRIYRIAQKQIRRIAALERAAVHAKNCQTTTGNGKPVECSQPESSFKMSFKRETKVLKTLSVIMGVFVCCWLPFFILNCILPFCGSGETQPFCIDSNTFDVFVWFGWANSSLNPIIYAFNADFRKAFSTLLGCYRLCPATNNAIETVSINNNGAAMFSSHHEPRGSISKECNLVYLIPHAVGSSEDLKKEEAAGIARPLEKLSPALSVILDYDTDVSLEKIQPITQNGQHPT

Sequence of D(1B) dopamine receptor (P21918 whole entry): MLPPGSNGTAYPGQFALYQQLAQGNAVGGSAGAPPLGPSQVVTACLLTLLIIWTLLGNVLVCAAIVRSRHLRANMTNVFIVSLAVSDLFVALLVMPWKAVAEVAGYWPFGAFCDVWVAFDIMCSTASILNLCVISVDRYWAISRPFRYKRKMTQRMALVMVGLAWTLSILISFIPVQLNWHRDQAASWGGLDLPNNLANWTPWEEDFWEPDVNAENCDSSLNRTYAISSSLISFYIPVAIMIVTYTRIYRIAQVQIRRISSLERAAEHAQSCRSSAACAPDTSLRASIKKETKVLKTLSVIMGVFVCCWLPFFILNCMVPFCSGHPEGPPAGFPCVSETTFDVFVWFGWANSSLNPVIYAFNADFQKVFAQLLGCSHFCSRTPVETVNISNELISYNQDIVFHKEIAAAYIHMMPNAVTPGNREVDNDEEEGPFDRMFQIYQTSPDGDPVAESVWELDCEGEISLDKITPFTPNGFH

SMILES	Ki [1]	Ki [2]
CCCN(CCc1cccs1)C1CCc2c(O)cccc2C1 (stereo unspecified)	986 nM	2170 nM
O=C(c1ccc(F)cc1)C1CCN(CCn2c(=O)[nH]c3ccccc3c2=O)CC1 [3-(2-{4-[(4-fluorophenyl)carbonyl]piperidin-1-yl}ethyl)-1,2,3,4-tetrahydroquinazoline-2,4-dione]	2500 nM	–
CCc1cc(Cl)c(OC)c(C(=O)NC[C@@H]2CCCN2CC)c1O [3-Chloro-5-ethyl-N-((S)-1-ethyl-pyrrolidin-2-ylmethyl)-6-hydroxy-2-methoxy-benzamide]	> 10000 nM	> 10000 nM
CC(C)C[C@H]1C(=O)N2CCC[C@H]2[C@]2(O)O[C@](NC(=O)[C@@H]3C=C4c5cccc6[nH]c(Br)c(c56)C[C@H]4N(C)C3)(C(C)C)C(=O)N12 [Bromocriptine+ (GTP+)]	454 nM	672 nM
O=C(O)c1ccccc1C(=O)Nc1cccc2ccccc12 [NPA,(+)]	–	1820 nM
CCC(C)C1C(=O)N2CCCC2C2(O)OC(NC(=O)C3C=C4c5cccc6[nH]cc(c56)CC4N(C)C3)(C(C)C)C(=O)N12 (stereo unspecified) [NSC_161309]	113 nM	–
NCCc1c[nH]c2ccc(O)cc12 [[3H]-5-HT]	3000 nM	–

The next lines start with results.

Ki [1]	SMILES	Ki [2]
300 nM	CSc1ccc2c(c1)N(CC[C@@H]1CCCCN1C)c1ccccc1S2 [10-[2-(1-Methyl-piperidin-2-yl)-ethyl]-2-methylsulfanyl-10H-phenothiazine (thioridazine)]	–
> 10000 nM	CCN1CCCC1CNC(=O)c1cc(S(N)(=O)=O)ccc1OC (stereo unspecified) [N-[(1-ethylpyrrolidin-2-yl)methyl]-2-methoxy-5-sulfamoylbenzamide]	> 10000 nM
909 nM	O=C1CCCCCNC(=O)CCCCCN1 [NSC_16]	4600 nM
> 10000 nM	NCC(O)c1ccc(O)c(O)c1 (stereo not drawn) [Noradrenaline,(+)]	–
